# Measurements taken from patent publication US11730734B2, “Use of ATR and Chk1 inhibitor compounds” (University of Florida Research Foundation, Incorporated, priority 2016, dated 2023).
# Entries after “also recorded” stand apart in the source; their conditions may differ.
# How the values were obtained:
# [1] = tested on: viral replication centers; assay: Viral replication center formation / maturation (immunofluorescence); assay type: cell-based, HSV-1; conditions: for replication center formation: 5 h
# Description: (§1) Cells were plated at 5×10^5 cells per well in 6-well plates and the following morning incubated with inhibitors. Following 1 h pre-incubation with inhibitors, cells were infected with HSV-1 at an MOI=0.1 in a volume of 200 uL for 1 h, viral inoculum removed, and cells overlaid with media containing fresh inhibitors, and cultured for 48 h. Following 48 h, cells and supernatant were harvested by scraping, separated into two Eppendorf tubes, and centrifuged at 10,000×g for 40 min. The cell pellet from one tube was used for extraction of DNA (DNazol according to manufacturer's recommendation, ThermoFisher Sci. catalog no. 10503027) and the second pellet was re-suspended in 200 uL serum-free MEM, freeze-thawed 3×, and virus titered on rabbit skin cells. For HSV-1 titering, rabbit skin cells were plated at 150,000 cells/well of 24-well plates and the following day infected with 10-fold serial dilutions of virus harvested from antiviral experiments. Cells were incubated for 48 h, stained with 1% crystal violet solution, and plaques counted from three separate wells for each experimental sample. Q-PCR was conducted using 20 ng input DNA, TaqMan® Fast Universal PCR 2× Master Mix (Applied Biosystems, catalog no. 4352041) along with TaqMan probes and target-specific primers (Applied Biosystems, Assays by Design part no. 4331348) against HSV-1 polymerase. Samples were run on a StepOnePlus Real-Time PCR System (Applied Biosystems) using fast cycling: denaturation at 95° C. for 20 sec followed by 40 cycles at 95° C. for 1 sec and 60° C. for 20 sec. Additional experimental compounds were also tested as follows: […] Cyclohexamide (Sigma, catalog no. C7698) or DMSO vehicle was added to the overlay media at 50 ug/mL and the infection allowed to proceed for 5 h. (2) For replication inhibition, phosphonoacetic acid (PAA) was added at time of virus adsorption and included in overlay media at 400 ug/mL for 5 h. (3) A final [3 mM] hydroxyurea was added at the time of cell plating and incubated for 18 h. […]
# ATR = ATR activation (pATR S428 immunofluorescence) in HSV-1 infected U2OS cells; assay type: cell-based; conditions: for ATR activation (pATR labeling): 5 h
# Description: as §1
# 17+HSV-1 = assay: Antiviral assay, HSV-1 titering (viral titer / PFU on rabbit skin cells); assay type: cell-based; conditions: U2OS cells, 17+HSV-1 MOI=0.1, 48 h; ATR inhibitors 10 μM, Chk1 inhibitors 250 nM, aphidicolin 4 μM, KU55933 10 μM, Chk2 inhibitor II 5 μM, NU7441 1 μM
# Chk1 [2] = assay: Chk1 activation (pChk1 S345 Western blot) in HSV-1 infected cells; assay type: cell-based
# Description: 5×10^5 cells were plated on 6-well plates and infected the following day with 17syn+(MOI=10). At the indicated times, cells were lysed in buffer containing 1% NP-40, 150 mM sodium chloride, 20 mM Tris-HCL pH 8.0, 2 mM EDTA, and 5% glycerol supplemented with phosphatase and protease inhibitor cocktails (Roche, PhosSTOP tablets; catalog no. 04906837001; ThermoFisherSci., Halt Protease Inhibitor Cocktail, catalog no. 1862209). For SDS-PAGE, 20 ug of protein was mixed with NuPAGE 4×LDS sample buffer (ThermoFisher Sci., catalog no. NP0007) along with NuPAGE Sample Reducing Agent (ThermoFisher Sci., catalog no. NP0004) and run on 4-12% Bis-Tris NuPAGE gels (ThermoFisher Sci.) with NuPAGE MOPS SDS running buffer (ThermoFisher Sci., catalog no. NP000102). Gels were transferred onto 0.22 μm PVDF in Towbin buffer (0.2 M Glycine, 25 mM Tris Base) containing 20% MeOH for 2 h under constant voltage (30V), the membrane blocked with 5% non-fat dry milk (NFDM)-TBST (20 mM Tris-HCL pH 7.4, 150 mM NaCl, 0.1% Tween-20) and probed with antibodies diluted in 1% NFDM-TBST overnight at 4° C. For ATR and ATM western blots, samples were processed as above except DTT (50 mM, Cell Signaling, catalog no. 7016) was used as the reducing agent and samples were run on NuPAGE Novex 3-8% Tris-acetate gels (ThermoFisher Sci.) with NuPAGE Tris-acetate SDS running buffer (ThermoFisher Sci., catalog no. LA0041). […]
# ICP4 = ICP4 expression by immunofluorescence in HSV-1 infected cells; assay type: cell-based; conditions: VE-822 10 μM, 17+HSV-1 MOI=10, 5 h.p.i.
# Description: (§2) U2OS cells were plated onto coverslips at 75,000 cells per well of 24-well plates and the following day infected at an MOI=10 for the indicated times.
# (§3) Thereafter, cells were processed for immunofluorescence in one of two ways that incorporated an Fc receptor blocking step: (1) cells were fractionated in situ by pre-extraction following previously published procedures; briefly, cells were incubated in Cytoskeleton Buffer (CB; 100 mM PIPES, 300 mM sucrose, 100 mM NaCl, 3 mM MgCl2, 1 mM EGTA) for 5 min on ice followed by incubation in Cytoskeleton Stripping Buffer (CSK; 10 mM Tri-HCL pH 7.4, 10 mM NaCl, 3 mM MgCl2, 1% Tween-40, 1% Tween-20, 0.5% sodium deoxycholate) for 5 min on ice. Cells were then washed 3× with PBS and fixed with Streck fixative (150 mM 2-bromo-2-nitro-1,3-propanediol, 108 mM diazolidinyl urea, 10 mM sodium citrate, 50 mM EDTA) for 30 min at RT, washed with PBS, and permeabilized with 0.5% Triton X-100 in 100 mM Tris-HCL pH 7.4 plus 50 mM EDTA for 15 min at RT. Cells were then incubated sequentially with Fc Receptor Blocker (Innovex Biosciences, catalog no. NB309) for 30 min at RT followed by blocking buffer (5% goat serum, 0.1% NP-40, 20 mM Tris-HCL pH 7.4, 150 mM NaCl) for 30 min at RT. (2) In some cases cells were fixed in 3.7% paraformaldehyde in PBS for 5 min at RT followed by blocking with Fc Receptor Blocker and blocking buffer as above. […]
# ICP8 = ICP8 expression in HSV-1 infected cells (data not shown); assay type: cell-based; conditions: VE-822 10 μM
# Description: as §2, §3
# Chk1 [3] = assay: Chk1 activation following KD6 infection of permissive Vero cell line K5; assay type: cell-based; conditions: KD6 infection of Vero cell line K5, cycloheximide
structure (smiles),measurement,setting,value
"O=C(O)CP(=O)(O)O [PAA, phosphonoacetic acid]",replication center formation,[1]; PAA 400 ug/mL,retards replication center formation
same,ATR activation (pATR labeling),ATR; PAA 400 ug/mL from virus adsorption,partially suppressed ATR activation; also recorded: partial suppression; also recorded: partially blocks pATR labeling
Cn1cc(-c2[nH]c3cc(NC(=O)[C@H](N)C4CCCCC4)cc4c3c2C=NNC4=O)cn1 [PF477736],"viral titers (HSV-1 PFU, virus production)",17+HSV-1,significantly impact virus production
CNCc1ccc(-c2cc(-c3nc(-c4ccc(S(=O)(=O)C(C)C)cc4)cnc3N)on2)cc1 [VE-822],Chk1 activation / phosphorylation,"Chk1 [2]; VE-822 10 μM, 17+HSV-1 MOI=10, Western blot",Chk1 activation was also blocked; also recorded: blocks activation of both ATR and Chk1; also recorded: blocks phosphorylation of Chk1
same,maturation of replication centers,"[1]; VE-822, during HSV-1 infection",blocks maturation of replication centers
same,expression of ICP4,ICP4,blocked expression of ICP4; also recorded: blocking expression of both ICP4 and ICP8
same,expression of ICP8,ICP8,blocked expression; also recorded: blocking expression of both ICP4 and ICP8
same,ATR activation (pATR),"ATR; VE-822 10 μM, 17+HSV-1 MOI=10, 5 h.p.i.",blocked ATR activation; also recorded: blocks activation of both ATR and Chk1
C[C@@]1(CO)[C@H](O)CC[C@@]2(C)[C@H]1CC[C@H]1C[C@@H]3C[C@@]12CC[C@]3(O)CO [aphidicolin],"viral titers (HSV-1 PFU, virus production)",17+HSV-1,significantly inhibit viral titers; also recorded: significantly impact virus production
C[C@@H]1C[C@@H]([C@H](O)CC2CC(=O)NC(=O)C2)C(=O)[C@@H](C)C1 [cycloheximide],Chk1 activation,Chk1 [2]; cycloheximide,complete suppression
same,Chk1 activation,Chk1 [3],blocked
same,replication center formation,[1]; cycloheximide 50 ug/mL,retards replication center formation
same,ATR activation (pATR labeling),ATR; cycloheximide 50 ug/mL in overlay media,completely blocked ATR activation; also recorded: complete suppression; also recorded: completely suppresses pATR labeling
